Legend:
[1] = Carotenoid content of Lycopene Suspension-supplemented diets after 7 months storage; type: physicochemical; conditions: for Carotenoid content of diet: stored at −20 °C for 7 months
Method: When the Lycopene Suspension (Henkel Corporation, La Grange, Ill.) was extracted by organic extraction methods, the major carotenoid was lycopene, but a number of other carotenoids were known to be present in tomatoes, α- and β-Carotene, phytofluene and phytoene were also present (FIGS. 6 & 7). The quantitative profile of carotenoids in the Lycopene Suspension was carried out using an HPLC system as described above, equipped with a photodiode array detector. The six major components can be seen in Table 7.
(Table 10). Note that all the major carotenoids plus the lycopene metabolite present in the Lycopene Suspension are present in the diets in the same relative proportions. However, the net loss of lycopene over 7 months was 66%, 38%, 40%, 44% and 60%, in treatment groups 1-5, respectively; in contrast, β-carotene concentrations declined by only 10% of original values over the same time period.

[2] = Carotenoid content of livers of rats fed supplemented diets
Method: Breast, liver and prostate tissue contain lipids which interfere with the assay. Consequently, a saponification step was required prior to organic extraction. Tissue was homogenized in 20 ml methanol to which echinenone was added as internal standard. For breast tissue, which comprise of 85% adipocytes, 8.0 ml 50% NaOH and 4.0 ml 25% sodium ascorbate was added and the mixture was homogenized. For prostate and liver tissue, which contain less lipid, 4.0 ml and 50% NaOH. and 2.0 ml sodium ascorbate were added and the mixture was
homogenized. Saponification was carried out in 50 ml tubes saturated with N2 gas overnight in a temperature controlled shaker bath at 30° C. Following saponification, 10 ml hexane was add d to each tube and vortexed for 1 minute. The mixture was then centrifuged at 2000 rpm for 10 min at 4° C. and the hexane layer was decanted and saved. This hexane extraction procedure was repeated 5-7 times. The pooled hexane extract was then dried under N2 gas at 60° C., dissolved in injection solvent and analyzed by HPLC. Lung and colon tissue were processed in an identical manner with the exception that the saponification step was omitted.

[3] = female rats, Diet 1, 2.5 mM/kg diet
[4] = female rats, Diet 2, 1.0 mM/kg diet
[5] = female rats, Diet 3, 0.5 mM/kg diet
[6] = female rats, Diet 4, 0.25 mM/kg diet
[7] = female rats, Diet 5, 0.10 mM/kg diet
[8] = male rats, Diet 1, 2.5 mM/kg diet
[9] = male rats, Diet 2, 1.0 mM/kg diet
[10] = male rats, Diet 3, 0.5 mM/kg diet
[11] = male rats, Diet 5, 0.10 mM/kg diet

Row | SMILES | Carotenoid content of diet ([1]; Diet 1, 2.5 mM/kg diet) | Carotenoid content of diet ([1]; Diet 2, 1.0 mM/kg diet) | Carotenoid content of diet ([1]; Diet 3, 0.5 mM/kg diet) | Carotenoid content of diet ([1]; Diet 4, 0.25 mM/kg diet) | Carotenoid content of diet ([1]; Diet 5, 0.10 mM/kg diet) | Carotenoid content of liver [2, 3] | Carotenoid content of liver [2, 4] | Carotenoid content of liver [2, 5] | Carotenoid content of liver [2, 6] | Carotenoid content of liver [2, 7] | Carotenoid content of liver [2, 8] | Carotenoid content of liver [2, 9] | Carotenoid content of liver [2, 10] | Carotenoid content of liver ([2]; male rats, Diet 4, 0.25 mM/kg diet) | Carotenoid content of liver [2, 11] | decline of concentration from original values ([1]; diets, 7 months storage)
1 | CC(C)=CCC/C(C)=C/C=C/C(C)=C/C=C/C(C)=C/C=C/C=C(C)/C=C/C=C(C)/C=C/C1C(C(C)(C)O)CCC1(C)O (stereo not drawn) [2,6 cyclolycopene-1,5-diol] | 2 μg/gm (ppm) | 1.4 μg/gm (ppm) | 0.76 μg/gm (ppm) | 0.46 μg/gm (ppm) | 0.14 μg/gm (ppm) | 9 μg/gm (ppm) | 5 μg/gm (ppm) | 7 μg/gm (ppm) | 4 μg/gm (ppm) | 6 μg/gm (ppm) | 4 μg/gm (ppm) | .39 μg/gm (ppm) | 4 μg/gm (ppm) | .28 μg/gm (ppm) | .34 μg/gm (ppm) | 
2 | CC(C)=CCC/C(C)=C/CC/C(C)=C/CC/C(C)=C/C=C/C=C(\C)CC/C=C(\C)CC/C=C(\C)CCC=C(C)C [Phytoene] | 70 μg/gm (ppm) | 23 μg/gm (ppm) | 0.32 μg/gm (ppm) | 5 μg/gm (ppm) | 1 μg/gm (ppm) | 66 μg/gm (ppm) | 35 μg/gm (ppm) | 40 μg/gm (ppm) | 46 μg/gm (ppm) | 38 μg/gm (ppm) | 23 μg/gm (ppm) | 4 μg/gm (ppm) | 21 μg/gm (ppm) |  | 10 μg/gm (ppm) | 

Now from value to molecule:

Row | Carotenoid content of diet ([1]; Diet 1, 2.5 mM/kg diet) | Carotenoid content of diet ([1]; Diet 2, 1.0 mM/kg diet) | Carotenoid content of diet ([1]; Diet 3, 0.5 mM/kg diet) | Carotenoid content of diet ([1]; Diet 4, 0.25 mM/kg diet) | Carotenoid content of diet ([1]; Diet 5, 0.10 mM/kg diet) | Carotenoid content of liver [2, 3] | Carotenoid content of liver [2, 4] | Carotenoid content of liver [2, 5] | Carotenoid content of liver [2, 6] | Carotenoid content of liver [2, 7] | Carotenoid content of liver [2, 8] | Carotenoid content of liver [2, 9] | Carotenoid content of liver [2, 10] | Carotenoid content of liver ([2]; male rats, Diet 4, 0.25 mM/kg diet) | Carotenoid content of liver [2, 11] | decline of concentration from original values ([1]; diets, 7 months storage) | SMILES
3 | 58 μg/gm (ppm) | 28 μg/gm (ppm) | 14 μg/gm (ppm) | 8 μg/gm (ppm) | 2 μg/gm (ppm) | 106 μg/gm (ppm) | 48 μg/gm (ppm) | 50 μg/gm (ppm) | 46 μg/gm (ppm) | 33 μg/gm (ppm) | 30 μg/gm (ppm) | 5 μg/gm (ppm) | 34 μg/gm (ppm) |  | 10 μg/gm (ppm) |  | CC(C)=CCC/C(C)=C/CC/C(C)=C/C=C/C(C)=C/C=C/C=C(\C)CC/C=C(\C)CC/C=C(\C)CCC=C(C)C [Phytofluene]
4 | 1 μg/gm (ppm) | 9 μg/gm (ppm) | 4 μg/gm (ppm) | 2 μg/gm (ppm) | 0 μg/gm (ppm) |  |  |  |  |  |  |  |  |  |  |  | CC(C)=CCC/C(C)=C/CC/C(C)=C/C=C/C(C)=C/C=C/C=C(C)/C=C/C=C(\C)CC/C=C(\C)CCC=C(C)C [zeta-carotene]
5 | 284 μg/gm (ppm) | 138 μg/gm (ppm) | 69 μg/gm (ppm) | 37 μg/gm (ppm) | 8 μg/gm (ppm) |  |  |  |  |  |  |  |  |  |  | 10% | CC1=C(/C=C/C(C)=C/C=C/C(C)=C/C=C/C=C(C)/C=C/C=C(C)/C=C/C2=C(C)CCCC2(C)C)C(C)(C)CCC1 [β-carotene]

Source: patent publication US20040191297A1, “Carotenoid formulation” (priority 1997, published 2004)
